Data from patent US12319652B2, “Salts and solid forms of (R)-1-(5-methoxy-1H-indol-1-yl)-N,N-dimethylpropan-2-amine” (priority 2021, dated 2025).

Assays:
[1] = Equilibrium humidity evaluation of crystalline compound 1 HCl Form A (95% RH/20° C.); format: physicochemical; settings: for XRPD (t = 0) / XRPD (t = 5 d) / XRPD (t = 10 d): 95% RH @ 20° C.; for DSC onset / XRPD: t = 10 days, 95 % RH @ 20° C.
Protocol: The stability of crystalline compound 1 HCl Form A was evaluated. Absorbent compound 1·Cl (Form A), (100 mg) was maintained, open-capped at 95% RH/20° C. and monitored at t=0, t=5 d and t=10 d, time points.
While absorbent Compound 1 HCl Form A), (100 mg) was placed open-capped inside double, cable-tied, electrostatic polythene bags (to mimic a typical packaging configuration) and placed inside the same humidity chamber at 95% RH at 20° C. and monitored at t=0, t=5 d and t=10 d time points. Stability of compound 1·HCl (Form A) at 40° C./75% RH was examined as part of the salt screen, and was stable over 10 d.

[2] = Heat-up/cool-down crystallization screen of Compound 1 HCl
Protocol: A heat up/cool down crystallization screen was performed. An compound 1 HCl Form A was used as input material. […]

[3] = Amorphous forms and thermal study (glass temperature Tg by DSC/TGA); format: physicochemical
[4] = Dynamic vapor sorption (DVS); format: physicochemical; settings: for DVS isotherm type / hygroscopicity: 0 to 90 to 0% RH
Protocol: There are two main methods to use, one is by time where the equilibration is given by a fixed time, i.e., 1 hour per step and is appropriate for an unknown phase. The second, is by mass per time unit (dm/dt) of 0.002%/min; that is when the difference in weight is less than 0.002%, the instrument moves onto the next step. For unknown hygroscopicity, the method by time is indicated because it gives an idea of water affinity without wasting much time. Ideally the analyses are repeated using the mass equilibration method to confirm. By experience for hygroscopic samples, the analysis can continue for days. For non-hygroscopic samples the difference between the two methods may not be significant.
Consequently, amorphous batch 1 was analyzed by the fixed time method and once compound 1 fumarate crystalline polymorphic Form A was generated the analyses was repeated as mass per unit time equilibrated @dm/dt ([…]) and is given below (refer to FIG. 12).
(§1) The moisture sorption properties of the feed API were analysed by DVS Intrinsic instrument (Surface Measurement System). Approximately 20 to 50 mg of API was weighed onto an aluminium pan and loaded into the instrument equilibrated at 25° C. The sample was equilibrated under a dry atmosphere (0% relative humidity) for 60 minutes, before increasing the humidity from 0% to 30% at 5%4 step increment and from 30% to 90% at 10% step increment. A desorption cycle was also applied from 90% to 30% (10% step decrement) and from 30% to 0% (5% step decrement). A rate of change in mass per time unit (dm/dt) of 0.002%/min was set as the equilibrium parameter. Kinetic and isotherm graphs were calculated.
Specimens were equilibrated at 0% RH for 60 min, prior to DVS analyses (stepped increment % RH up to 90% RH and stepped decrement % RH down to 0% RH.
as §1, with “5%” for “5%4”

[5] = Solubility determinations in SIF buffers (FaSSIF, FeSSIF, FaSSGF); format: physicochemical; settings: FaSSIF, FeSSIF and FaSSGF, 37° C., 24 h, concentration tested 30 mg/ml
Protocol: At this stage ca. 1 g of each front-runner salt form was prepared. Salt forms that offered significant solubility and stability advantages over the non-ionized API were prioritized. […] Scale Up
The solubility of the salts below was determined in FaSSIF, FeSSIF and FaSSGF by reference to the calibration curve of amorphous compound 1.
Separate portions of compound 1 were weighed out into aluminum boats and were charged to the relevant volumetric flasks. Solutions were made to volume with 1 to 1 (v/v) acetonitrile/purified water to give calibrants of known API concentrations and analyzed by HPLC, suitable to determine the concentration of compound 1 free base in the SIF buffer solubility study.
Each sample (150 mg) was suspended in the relevant SIF buffer (5.0 ml), to give a concentration of 30 mg/ml and maintain at 37° C. for 24 h. The pH was adjusted using 1 M HCl or 1 M NaOH, to ensure that the suspension remains in range.
Sample (1 ml) of the well-stirred representative suspensions was obtained at 1 h, 3 h, 6 h and 24 h and the pH was recorded. The pH of the bulk suspension was re-adjusted when necessary. The obtained sample from each vial was centrifuged, and the supernatant was analysed by HPLC (note, the analyte was diluted, when outside of the calibration range); XRPD analysis was performed on the wet sample pellet for evidence of form change, as well as on the oven-dried pellet (undervacuum at 40° C.).

[6] = format: physicochemical; settings: 10 days; listed as compound 1·HCl (Form A)
Protocol: Equilibrium Humidity Evaluation (40° C./75% RH for 10 Days)
100 mg portions of compound 1 salts (for inputs see table below) were placed in the relevant open vials. The powders were finely divided and distributed evenly over the base of the vial, such that equal material coverage across the panel was observed. These samples were then maintained 40°C. under 75% RH. The samples were sub-sampled at intervals of 5 and 10 days and analysed by ^1H NMR, HPLC, XRPD, DSC, TGA and PLM, for evidence of phase change or chemical degradation (FIG. 269-297).

[7] = Double polyethylene bagged, open vial
[8] = 2-Propanol 3.0 vol + Water 75 μl
[9] = Chlorobenzene 3.0 vol + MeOH 175 μl
[10] = Ethyl formate 3.0 vol + MeOH 225 μl
[11] = Isopropyl acetate 3.0 vol + IPA 3725 μl
[12] = Nitromethane 3.0 vol + MeOH 50 μl

## COc1ccc2c(ccn2C[C@@H](C)N(C)C)c1.Cl [compound 1 HCl Form A]
[1]; [7]
  XRPD (t = 0): Form A
  XRPD (t = 5 d): Form A
  XRPD (t = 10 d): Form A
  DSC onset: 203.7 °C
  XRPD: Form A
[1]; Open vial
  XRPD (t = 0): Form A
  XRPD (t = 5 d): Form A
  XRPD (t = 10 d): Form A
  DSC onset: 204.4 °C
  XRPD: Form A
[2]; [8]
  Observations (t = -, T = 70° C.): Pink solution
  XRPD (moist pellet): Form A
  XRPD (oven dried): Form A
[2]; Acetone 3.0 vol + Water 50 μl
  Observations (t = -, T = 70° C.): Pink solution
  XRPD (moist pellet): Form A
  XRPD (oven dried): Form A
[2]; [9]
  Observations (t = -, T = 70° C.): Pink solution
  XRPD (moist pellet): Form A
  XRPD (oven dried): Form A
[2]; DCM 3.0 vol + MeOH 125 μl
  Observations (t = -, T = 70° C.): Pink solution
  XRPD (moist pellet): Form A
  XRPD (oven dried): Form A
[2]; EtOAc 3.0 vol + EtOH 1375 μl
  Observations (t = -, T = 70° C.): Pink solution
  XRPD (moist pellet): Form A
  XRPD (oven dried): Form A
[2]; EtOH 3.0 vol + Water 50 μl
  Observations (t = -, T = 70° C.): Pink solution
  XRPD (moist pellet): Form A
  XRPD (oven dried): Form A
[2]; [10]
  Observations (t = -, T = 70° C.): Pink solution
  XRPD (moist pellet): Form A
  XRPD (oven dried): Form A
[2]; [11]
  Observations (t = -, T = 70° C.): Suspension
  XRPD (moist pellet): Form A
  XRPD (oven dried): Form A
[2]; MEK 3.0 vol + Water 50 μl
  Observations (t = -, T = 70° C.): Pink solution
  XRPD (moist pellet): Form A
  XRPD (oven dried): Form A
[2]; MeCN 3.0 vol + Water 25 μl
  Observations (t = -, T = 70° C.): Pink solution
  XRPD (oven dried): Form A
[2]; MeOH 3.0 vol + water 25 μl
  Observations (t = -, T = 70° C.): Pink solution
  XRPD (moist pellet): Form A
  XRPD (oven dried): Form A
[2]; MeTHF 3.0 vol + MeOH 425 μl
  Observations (t = -, T = 70° C.): Pink solution
  XRPD (moist pellet): Form A
  XRPD (oven dried): Form A
[2]; Methyl acetate 3.0 vol + Water 75 μl
  Observations (t = -, T = 70° C.): Pink solution
[2]; [12]
  Observations (t = -, T = 70° C.): Pink solution
  XRPD (moist pellet): Form A
  XRPD (oven dried): Form A
[2]; TBME 3.0 vol + MeOH 425 μl
  Observations (t = -, T = 70° C.): Pink solution
  XRPD (moist pellet): Form A
  XRPD (oven dried): Form A
[2]; THE 3.0 vol + Water 50 μl
  Observations (t = -, T = 70° C.): Pink solution
  XRPD (moist pellet): Form A
  XRPD (oven dried): Form A
[2]; Toluene 3.0 vol + MeOH 200 μl
  Observations (t = -, T = 70° C.): Pink solution
  XRPD (moist pellet): Form A
  XRPD (oven dried): Form A
[2]; Water 3.0 vol, no co-solvent
  Observations (t = -, T = 70° C.): Pink solution

## COc1ccc2c(ccn2C[C@@H](C)N(C)C)c1.Cl [amorphous compound 1 HCl]
[3]; 206.7° C., comment: De-solvation
  TGA % Δwt.: −18.2%,
[3]; DSC thermal event Tg
  DSC measurements, Endset: 48.35 °C
  DSC measurements, Integral: −2.2 Jg^−1
  DSC measurements, Onset: 37.07 °C
  DSC measurements, Peak: 43.00 °C
[3]; heated up past the melt event on a hot stage microscope
  Form Assignment: Amorphous

## COc1ccc2c(ccn2C[C@@H](C)N(C)C)c1.Cl [Crystalline compound 1 HCl Form A]
[4]; listed as Compound 1·HCl Form A
  DVS isotherm type / hygroscopicity: slightly hygroscopic
[4]; listed as crystalline compound 1 HCl Form A
  DVS isotherm type / hygroscopicity: Slightly hygroscopic
[4]; desorption step, dm/dt <0.002%
  DVS mass change at 0.0% RH: 0.0239%
  DVS mass change at 5.0% RH: 0.0344%
  DVS mass change at 10.0% RH: 0.0455%
  DVS mass change at 15.0% RH: 0.0547%
  DVS mass change at 20.0% RH: 0.0648%
  DVS mass change at 25.0% RH: 0.0714%
  DVS mass change at 30.0% RH: 0.0860%
  DVS mass change at 40.0% RH: 0.0968%
  DVS mass change at 50.0% RH: 0.1367%
  DVS mass change at 60.0% RH: 0.1671%
  DVS mass change at 70.0% RH: 0.2211%
  DVS mass change at 80.0% RH: 0.2935%
[4]; during desorption, listed as crystalline compound 1 HCl Form A
  DVS desorption behaviour (hysteresis): held on to a little water at 0% RH
[4]; sorption step, dm/dt <0.002%
  DVS mass change at 0.0% RH: DVS 0 to 90 to 0% RH (dm/dt <0.002%): 0.0 (0.0011%), 5.0
  DVS mass change at 5.0% RH: 0.0078%
  DVS mass change at 10.0% RH: 0.0161%
  DVS mass change at 15.0% RH: 0.0248%
  DVS mass change at 20.0% RH: 0.0329%
  DVS mass change at 25.0% RH: 0.0379%
  DVS mass change at 30.0% RH: 0.0462%
  DVS mass change at 40.0% RH: 0.0659%
  DVS mass change at 50.0% RH: 0.0961%
  DVS mass change at 60.0% RH: 0.1388%
  DVS mass change at 70.0% RH: 0.1902%
  DVS mass change at 80.0% RH: 0.2647%
  DVS mass change at 90.0% RH: 0.4599%
[5]
  Solubility in SIF buffers: Solubility in SIF buffers: Soluble in all SIF buffers at 37 °C during 24 h.
[6]
  Stability at 40° C./75% RH: stable
[1]; 20° C./95% RH, open-capped and double bagged vials, 10-day period
  Water uptake by TG analyses: did not show any water uptake
